Our source for the DC50 values is patent EP4656640A1, “IRAK4 DEGRADER AND USE THEREOF” (Shanghai Qilu Pharmaceutical Research and Development …, priority 2023, dated 2024).

Like-named read-outs stand apart in the source and are kept apart here.

Experiment [1] deals with T1, IRAK4 (Homo sapiens, UniProt Q9NWZ3).
T1 sequence (Q9NWZ3 1-460): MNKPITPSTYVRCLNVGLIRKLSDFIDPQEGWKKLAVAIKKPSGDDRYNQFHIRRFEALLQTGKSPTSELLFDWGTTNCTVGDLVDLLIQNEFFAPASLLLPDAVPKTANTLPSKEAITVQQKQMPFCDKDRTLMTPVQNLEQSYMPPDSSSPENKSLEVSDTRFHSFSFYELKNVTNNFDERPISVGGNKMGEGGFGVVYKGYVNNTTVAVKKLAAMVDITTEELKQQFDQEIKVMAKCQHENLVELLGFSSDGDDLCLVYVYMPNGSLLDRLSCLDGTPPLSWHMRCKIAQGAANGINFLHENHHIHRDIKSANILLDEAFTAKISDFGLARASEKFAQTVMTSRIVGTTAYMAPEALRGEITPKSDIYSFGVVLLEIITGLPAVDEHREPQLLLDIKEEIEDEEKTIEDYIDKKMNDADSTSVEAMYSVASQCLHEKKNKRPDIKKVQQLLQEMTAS
The class given is cell-based. More on the design: endogenous in cells; host or cells: OCI-LY3. The note with it: read-out: OCI-LY3 DC50.

Experiment [2] deals with T1, IRAK4. Kind of experiment: Degradation of IRAK4 in SU-DHL-2 cells (flow cytometry). It counts as cell-based. Also noted: The degradation level of IRAK4 protein in SU-DHL-2 cell line by the compounds was detected by flow cytometry; endogenous in cells; host or cells: SU-DHL-2; OCI-LY3. As to the method: The degradation level of IRAK4 protein in SU-DHL-2 cell line by the compounds was detected by flow cytometry.
Step 2: On day 1, the cells were seeded at a density of 2 × 10^5 cells per well in 100 µL in a 96-well plate. The compounds were dissolved in DMSO to a final concentration of 10 mM, and then diluted with culture medium at a 1:5 concentration gradient to prepare 10 concentrations. The diluted solutions were added to the cells to obtain a maximum final concentration of 2 µM. Wells containing cells treated with 0.1% DMSO served as the […] The cells were incubated at 37°C in a 5% CO2 incubator for 24 hours.
Step 3: After centrifugation, the cells were washed with FACS buffer. The cells were stained for viability discrimination using the LIVE/DEAD™ Fixable Blue Dead Cell Stain Kit, and surface staining of monocytes was performed with PE Mouse Anti-Human CD14, followed by incubation at 4°C for 30 minutes.
Step 4: After centrifugation, the cells were washed with FACS buffer. Fix buffer I, equal in volume to the cultured cells, was added, and the cells were fixed at 37°C for 10 minutes.
Step 5: After centrifugation, the cells were washed with FACS buffer. 150 µL of Perm III reagent was added, and the cells were incubated at 4°C for 30 minutes to permeabilize the membranes. After centrifugation, the cells were washed with FACS buffer.
Flow cytometry analysis was performed using a flow cytometer.
The flow cytometry data were analyzed using Flowjo software. Data presentation and DC50 (half-maximal degradation concentration) calculation were performed using Prism 8.0.2 (GraphPad).

[3] abbreviates: read-out: SU-DHL-2 DC50; SU-DHL-2 cells, 24 hours incubation.
Setting [4] is: SU-DHL-2 cells, 24 hours incubation; read-out: SU-DHL-2 DC50.

As to `Cn1c(=O)n(C2CCC(=O)NC2=O)c2cccc(C#CCO[C@H]3C[C@@H](CN4CCC5(CC4)CC(n4cc(NC(=O)c6cnn7ccc(N8C[C@H]9C[C@@H]8CO9)nc67)c(C(F)F)n4)C5)C3)c21` (stereo partly shown) [Example 30], the figures for the DC50 in experiment [1] (OCI-LY3 cells) and in experiment [2] (setting [3]) were 1 nM and 3 nM, respectively.
`Cn1c(=O)n(C2CCC(=O)NC2=O)c2cccc(C#CCOCCCCN3CCC4(CC3)CC(n3cc(NC(=O)c5cnn6ccc(N7C[C@H]8C[C@@H]7CO8)nc56)c(C(F)F)n3)C4)c21` (stereo partly shown) [Example 4]: the DC50 came to 5 nM in experiment [1] and 8 nM in experiment [2] (read-out: SU-DHL-2 DC50).
On to `Cn1c(=O)n(C2CCC(=O)NC2=O)c2cccc(C#CCOCC(=O)N3CCC4(CC3)CC(n3cc(NC(=O)c5cnn6ccc(N7C[C@H]8C[C@@H]7CO8)nc56)c(C(F)F)n3)C4)c21` (stereo partly shown) [Example 12], for which the DC50 in experiment [1] (OCI-LY3 cells) and in experiment [2] (setting [3]) was 5 nM each time.
On to `Cn1c(=O)n(C2CCC(=O)NC2=O)c2cccc(C#CCO[C@H]3C[C@H](CN4CCC5(CC4)CC(n4cc(NC(=O)c6cnn7ccc(N8C[C@H]9C[C@@H]8CO9)nc67)c(C(F)F)n4)C5)C3)c21` (stereo partly shown) [Example 29], for which the DC50 worked out at 1 nM in experiment [1] (OCI-LY3 cells) and 3 nM in experiment [2] (setting [3]).
As for `Cn1c(=O)n(C2CCC(=O)NC2=O)c2cccc(C#CCCC(=O)N3CCC4(CC3)CC(n3cc(NC(=O)c5cnn6ccc(N7C[C@H]8C[C@@H]7CO8)nc56)c(C(F)F)n3)C4)c21` (stereo partly shown) [Example 24], the DC50 in experiment [1] (OCI-LY3 cells) was 3 nM; in experiment [2] (setting [4]) it was 4 nM.
Take `Cn1c(=O)n(C2CCC(=O)NC2=O)c2cccc(C#CCN3CCC(CN4CCC5(CC4)CC(n4cc(NC(=O)c6cnn7ccc(N8C[C@H]9C[C@@H]8CO9)nc67)c(C(F)F)n4)C5)CC3)c21` (stereo partly shown) [Example 3]: the figures for the DC50 in experiment [1] and in experiment [2] (read-out: SU-DHL-2 DC50) were 8 nM and 11 nM, respectively.
Turning to `Cn1c(=O)n(C2CCC(=O)NC2=O)c2cccc(C#CCOCCCN3CCC4(CC3)CC(n3cc(NC(=O)c5cnn6ccc(N7C[C@H]8C[C@@H]7CO8)nc56)c(C(F)F)n3)C4)c21` (stereo partly shown) [Example 2], the DC50 in experiment [1] came to 0.4 nM; in experiment [2] (read-out: SU-DHL-2 DC50) it was 1.1 nM.
With `Cn1c(=O)n(C2CCC(=O)NC2=O)c2cccc(C#CCOC(C)(C)C(=O)N3CCC4(CC3)CC(n3cc(NC(=O)c5cnn6ccc(N7C[C@H]8C[C@@H]7CO8)nc56)c(C(F)F)n3)C4)c21` (stereo partly shown) [Example 10], the DC50 in experiment [1] (OCI-LY3 cells) came out at 13 nM; in experiment [2] (setting [3]), 17 nM.
For the compound `Cn1c(=O)n(C2CCC(=O)NC2=O)c2cccc(C#CCCCCN3CCC4(CC3)CC(n3cc(NC(=O)c5cnn6ccc(N7C[C@H]8C[C@@H]7CO8)nc56)c(C(F)F)n3)C4)c21` (stereo partly shown) [Example 15], the DC50 in experiment [1] (OCI-LY3 cells) stood at 1.5 nM; in experiment [2] (setting [4]), 5 nM.
Turning to `Cn1c(=O)n(C2CCC(=O)NC2=O)c2cccc(C#CCOCC(C)(C)C(=O)N3CCC4(CC3)CC(n3cc(NC(=O)c5cnn6ccc(N7C[C@H]8C[C@@H]7CO8)nc56)c(C(F)F)n3)C4)c21` (stereo partly shown) [Example 5], the results for the DC50 in experiment [1] (OCI-LY3 cells) and in experiment [2] (setting [3]) were 28 nM and 27 nM, respectively.
The like results for `Cn1c(=O)n(C2CCC(=O)NC2=O)c2cccc(C#CCOCC3(C(=O)N4CCC5(CC4)CC(n4cc(NC(=O)c6cnn7ccc(N8C[C@H]9C[C@@H]8CO9)nc67)c(C(F)F)n4)C5)CC3)c21` (stereo partly shown) [Example 7] were, in that order, 10 nM and 12 nM.
For the compound `Cn1c(=O)n(C2CCC(=O)NC2=O)c2cccc(C#CCOCC3CC(N4CCC5(CC4)CC(n4cc(NC(=O)c6cnn7ccc(N8C[C@H]9C[C@@H]8CO9)nc67)c(C(F)F)n4)C5)C3)c21` (stereo partly shown) [Example 9], the DC50 turned out to be 2.3 nM in experiment [1] (OCI-LY3 cells) and 2.7 nM in experiment [2] (setting [4]).
Regarding `Cn1c(=O)n(C2CCC(=O)NC2=O)c2cccc(C#CCOCCC(=O)N3CCC4(CC3)CC(n3cc(NC(=O)c5cnn6ccc(N7C[C@H]8C[C@@H]7CO8)nc56)c(C(F)F)n3)C4)c21` (stereo partly shown) [Example 8], the figures for the DC50 in experiment [1] (OCI-LY3 cells) and in experiment [2] (setting [3]) were 2 nM and 4 nM, respectively.
On to `Cn1c(=O)n(C2CCC(=O)NC2=O)c2cccc(C#CCCCN3CCC4(CC3)CC(n3cc(NC(=O)c5cnn6ccc(N7C[C@H]8C[C@@H]7CO8)nc56)c(C(F)F)n3)C4)c21` (stereo partly shown) [Example 17], for which the DC50 in experiment [1] (OCI-LY3 cells) and in experiment [2] (setting [4]) was 1 nM throughout.
